Experimental findings from US20250235423A1, “USES OF AMINO ACID-CHELATED ZINC, INCLUDING IMMUNE REGULATION AND TREATMENT OF AUTOIMMUNE DISEASE” (FAAC Bio Inc., priority 2024, published 2025) are described below.

For assay [1], the system named is CIA rat. Kind of assay: Arthritis severity score in collagen-induced arthritis (CIA) animal model. The format is in vivo, Lewis rats. To be noted: CIA rats; for Progression of arthritis severity after Day 17: compared to the CIA group. Details: Arthritis severity score: scale not given here. The method, then:
(§1) Lewis rats were bred under the condition with a temperature of 21° C. to 25° C., a humidity level of 40% to 70%, and a lighting period of 12 hours (7 a.m. to 7 p.m.). The rats had free access to the feed. All the rats were monitored for at least 6 days to ensure their health to prepare a collagen-induced arthritis (CIA) animal model.
(§2) A collagen emulsion was prepared by evenly mixing collagen and IFA at a volume ratio of 1:1 using a homogenizer in a cold water bath. On Day 1, 200 μL of the collagen emulsion was injected subcutaneously at the base of the rat's tail, followed by a booster injection of 100 μL of the collagen emulsion at a different site on the base of the tail on Day 8. All the rats successfully developed CIA by Day 17 (hereinafter referred to as “CIA rat”).
(§3) As described in Preparation example C, all the rats successfully developed CIA by Day 17. Therefore, the CIA rats were randomly divided into four groups from Day 17 to administer the following solutions until the rats were sacrificed on Day 24, wherein the healthy rats not to induce arthritis were served as the control group: • (1) Control group (five healthy rats): 2 mL of PBS; • (2) CIA group (five CIA rats): 2 mL of PBS; • (3) MTX group (three CIA rats): 1 mg of MTX per kilogram of rat, dissolved in 2 mL of PBS; • (4) CMC-Zn group (five CIA rats): CMC-Zn at a zinc concentration of 0.075 mg, dissolved in 2 mL of PBS; and • (5) Modified CMC-Zn group (five CIA rats): modified CMC-Zn at a zinc concentration of 0.075 mg, dissolved in 2 mL of PBS.
(§4) The rat's paws were observed and their paw volumes were measured on Days 0, 3, 7, 10, 14, 17, 21 and 24. The arthritis severity of rats was evaluated by using the qualitative scoring system of Table 3, and the paw volume was determined by the following approach in accordance with the buoyancy principle of Archimedes' law: adding an appropriate amount of water into a beaker; placing the beaker on a scale and resetting to zero; placing the rat's paw into the water and immersing it to the target depth; and recoding the reading once it had stabilized.

Assay [2] deals with CIA rat. Nature of the assay: Paw volume (average weight percentage of both paws) in collagen-induced arthritis (CIA) animal model. The format is in vivo, Lewis rats. To be noted: for Weight percentages of the rats' paws on Day 24 (FIG. 4): Day 24, compared to the untreated CIA rats (p value<0.05); for Weight percentages of the rats' paws over time (FIG. 3): after administration from Day 17, compared to the CIA group. On the procedure:
as §1, §2, §3, §4

Assay [3] has as its system mouse bone marrow dendritic cells (BMDCs). Kind of assay: Flow cytometry analysis of dendritic cell maturation surface markers on treated BMDCs. In kind it is cell-based. The following applies: for Ability to inhibit dendritic cell maturation: all zinc concentrations, directly proportional to the zinc concentration; for CD11c expression level / CD40 expression level / CD80 expression level / CD83 expression level / CD86 expression level / MHC II expression level: 48 hours. On the procedure: Mice were sacrificed with carbon dioxide and immersed in 75% alcohol. After immersing for 3 minutes, the mice were removed from the alcohol and wiped. Then, the mouse limbs were fixed on a Styrofoam board. Next, the entire femur and tibia were collected by carefully cutting off the mouse skin and muscle. A filter (100 μm) was placed in a 3-cm dish and 2 ml of RPMI-1640 medium was added into the dish. Two ends of the femur were cut, and the bone marrow was collected by repeatedly washing the femur with the cell medium using a 26 G syringe until the femur appeared white. The bone marrow in the tibia was also collected by the same method. The filter was scraped by the reverse side of 1 mL tip to break up the cell clumps in the bone marrow and washed with the cell medium in the dish several times. Then, the cell medium in the dish was collected and placed into a tube to centrifuge at 1500 rpm for 3 minutes. After centrifuging, the supernatant was removed and 1 mL of RBC lysis buffer was added into the tube. After standing for 5 minutes, the tube was centrifuged at 1500 rpm for 3 minutes again. After removing the supernatant, a milky-white pellet was obtained. The pellet was re-suspended with the DC medium and the cell number of the suspension thus obtained was counted.
The cell concentration of the suspension was adjusted to 5×10^5 cells per mL. 1 mL of the suspension was added into each well of a 24-well plate. The 24-well plate was incubated at 37.5° C. and 5% CO2 for 2 days. The unattached granulocytes were removed by carefully removing the cell medium, and then, 0.5 mL of DC medium was added into each well of the 24-well plate. After incubating 3 days, the medium in each well was replaced with 0.5 mL of fresh DC medium and continuously incubated for 3 days. The 24-well plate was taken out from the incubator, and the medium in each well was carefully removed. The bottom of each well was gently pipetted with 2 mL of PBS several times. The pipetted PBS was collected into a centrifuge tube to count the number of cells and analyze the expression level of CD11c using flow cytometry.
(§5) After culturing for 48 hours, the cells and their medium in each group were collected to conduct the following analysis, respectively.
The cells obtained from (1-1) were counted and the cell concentration was adjusted with PBS to provide a cell suspension of 1×10^5 cells to 5×10^5 cells per 100 μL. 100 μL of the cell suspension was evenly mixed with 20 μL of FcR Blocking Reagent, and the mixture thus obtained was placed at 4° C. for 10 minutes. Furthermore, the antibodies of CD11c, CD40, CD80, CD83, CD86, MHC II and corresponding isotype control were added into the tubes containing the mixture, respectively. After vortexing for 1 second, the tubes were placed at room temperature in the dark for 15 minutes. Then, 300 μL of PBS was added into each tube, and after vortexing for 1 second, the tubes were centrifuged at 200×g for 5 minutes. The resulting supernatants were removed and the cells were re-suspended with 300 μL of PBS. Finally, the cell suspensions thus obtained were analyzed by flow cytometry, wherein all the cell suspension of each group were kept on ice in the dark until the analysis was conducted.
(A flow cytometer gives signals particle by particle.)

In the next assay the test system is IL12P70. Kind of assay: ELISA analysis of IL12P70 in the medium of treated BMDCs. The format is cell-based, mouse. The following applies: BMDC media, all groups of the substance. The method, then:
The secretion level of IL12P70 in immature DCs is very low, whereas mature DCs secret a large amount of IL12P70, allowing it an indicator of DC maturation. In this example, the expression levels of the surface markers (CD11c, CD40, CD83, CD86) on the BMDCs were analyzed using flow cytometry, and the secretion level of IL12p70 in the BMDCs' medium was measured with an ELISA kit, to observe the effects of amino acid-chelated zinc on dendritic cell maturation.
as §5
The media obtained from each group were placed into tubes, respectively, and the tubes were centrifuged (400×g) at 4° C. for 10 minutes to collect the supernatants. The IL12p70 standard was subjected to a serial dilution to provide a standard curve. The standards at various concentrations and the supernatants obtained from each group were added into a 96-well plate pre-coating with IL12p70 antibodies (100 μL per well, in duplicate). […] The absorbance value at 450 nm (OD450) in each well was detected within 3 minutes. Based on the standard curve resulted from the absorbance values of IL12p70 standards at various concentrations, the IL12p70 amounts corresponding to the absorbance values of each group were calculated as shown in Table 2.

[4] abbreviates: Day 0 (before administration, which starts Day 17).
Setting [5] is: Day 17 (start of administration).
The mark [6] stands for this setting: Day 21, administered from Day 17.
Setting [7] is: Day 24, administered from Day 17.
The mark [8] stands for this setting: zinc concentration 3.27 mg/mL (low concentration).
Setting [9] is: zinc concentration 6.54 mg/mL (medium concentration).
The mark [10] stands for this setting: zinc concentration 13.08 mg/mL (high concentration).

As for `CN(Cc1cnc2nc(N)nc(N)c2n1)c1ccc(C(=O)N[C@@H](CCC(=O)O)C(=O)O)cc1` [MTX, Methotrexate, reference compound], the Arthritis severity score with CIA rat [1] (setting [4]) is listed as 0; in the assay on CIA rat [1] (Day 3 (before administration)), 0; in the assay on CIA rat [1] (Day 7 (before administration)), 0; with CIA rat [1] (Day 10 (before administration)) it was 0; in the assay with CIA rat [1] (Day 14 (before administration)), 0.3; in the assay with CIA rat [1] (setting [5]), 3.7. Moreover, the Arthritis severity score in the assay on CIA rat [1] (setting [6]) was 3.7; in the assay on CIA rat [1] (setting [7]), 3. The “Progression of arthritis severity after Day 17” value in the assay on CIA rat [1] is given as “slower progression or even reduction in arthritis severity”. Besides, in the assay with CIA rat [2], the “Weight percentages of the rats' paws on Day 24 (FIG. 4)” value is given as “significantly decreased”. In the assay on CIA rat [2], the “Weight percentages of the rats' paws over time (FIG. 3)” value was “gradually decreased”.
As for `O=S(=O)([O-])[O-].[Zn+2]` [Zinc sulfate, reference compound], the “Ability to inhibit dendritic cell maturation” value in assay [3] is given as “demonstrated the ability to inhibit dendritic cell maturation”. In assay [3] (setting [8]), this compound registered a CD11c expression level of 87.2, a CD40 expression level of 16.1, a CD80 expression level of 46.7 and a CD83 expression level of 12.9. In assay [3] (setting [8]), the CD86 expression level is 49.2 and the “MHC II expression level” value came out at 16.8. In assay [3] (setting [9]), the CD11c expression level is recorded as 85.4, the CD40 expression level is reported as 11.2, the CD80 expression level is given as 37.2 and the CD83 expression level was found to be 10.4. In assay [3] (setting [9]), the CD86 expression level was 41.3 and the “MHC II expression level” value is 11.9. In assay [3] (setting [10]), this compound returned a CD11c expression level of 85.6, a CD40 expression level of 8.5, a CD80 expression level of 26.8 and a CD83 expression level of 6.68. Besides, in assay [3] (setting [10]), the CD86 expression level was found to be 26 and the “MHC II expression level” value stood at 8.08. In the assay with IL12P70, the “IL12P70 in the media” value is “not detected”.
Regarding glycine-chelated zinc [CMC-Zn], in assay [3], the “Ability to inhibit dendritic cell maturation” value is given as “demonstrated the ability to inhibit dendritic cell maturation”. In addition, in assay [3] (low and medium concentration), the “Expression levels of CD80 and CD86 compared to the groups of zinc sulfate” value is reported as “significantly decreased”. Further, the “Expression levels of the markers compared to the Immature DC group” value in assay [3] (low concentration (3.27 mg/mL zinc)) is on record as “even lower”. The CD11c expression level in assay [3] (setting [8]) is given as 88.3; in assay [3] (setting [9]), 87.8; in assay [3] (setting [10]), 74.1. In addition, the CD40 expression level worked out at 25 in assay [3] (setting [8]), 13.1 in assay [3] (setting [9]) and 6.24 in assay [3] (setting [10]). Also, the CD80 expression level in assay [3] (setting [8]) stood at 39; in assay [3] (setting [9]) it was 23.7; in assay [3] (setting [10]), 26.5. The CD83 expression level in assay [3] (setting [8]) is listed as 16.1; in assay [3] (setting [9]) it was 10.3; in assay [3] (setting [10]), 4.38. Further, the CD86 expression level in assay [3] (setting [8]) came to 37.9; in assay [3] (setting [9]), 23.1; in assay [3] (setting [10]), 25.4. Also, the “MHC II expression level” value in assay [3] (setting [8]) is 25; in assay [3] (setting [9]), 14; in assay [3] (setting [10]) it was 6.41. In the assay on IL12P70, the “IL12P70 in the media” value is given as “not detected”. Moreover, the Arthritis severity score with CIA rat [1] (setting [4]) was 0; in the assay on CIA rat [1] (Day 3 (before administration)), 0; in the assay with CIA rat [1] (Day 7 (before administration)), 0; in the assay on CIA rat [1] (Day 10 (before administration)), 0; in the assay on CIA rat [1] (Day 14 (before administration)), 0.4; with CIA rat [1] (setting [5]), 3.8. Moreover, the Arthritis severity score is given as 4.4 with CIA rat [1] (setting [6]) and 4.6 in the assay with CIA rat [1] (setting [7]). In addition, the “Progression of arthritis severity after Day 17” value with CIA rat [1] is reported as “slower progression or even reduction in arthritis severity”. In addition, the “Weight percentages of the rats' paws on Day 24 (FIG. 4)” value with CIA rat [2] is “significantly decreased”. Further, in the assay on CIA rat [2], the “Weight percentages of the rats' paws over time (FIG. 3)” value is “gradually decreased”.
